# Read-outs that look alike come from different tables or passages of the source.
# Molecular target: DDR1 (Homo sapiens, UniProt Q08345)
# Assay: HotSpot in vitro kinase radiometric assay
# Type: biochemical
# Design: purchased Reaction Biology (HotSpot contract assay)
# DDR1, sequence (Q08345 19-913): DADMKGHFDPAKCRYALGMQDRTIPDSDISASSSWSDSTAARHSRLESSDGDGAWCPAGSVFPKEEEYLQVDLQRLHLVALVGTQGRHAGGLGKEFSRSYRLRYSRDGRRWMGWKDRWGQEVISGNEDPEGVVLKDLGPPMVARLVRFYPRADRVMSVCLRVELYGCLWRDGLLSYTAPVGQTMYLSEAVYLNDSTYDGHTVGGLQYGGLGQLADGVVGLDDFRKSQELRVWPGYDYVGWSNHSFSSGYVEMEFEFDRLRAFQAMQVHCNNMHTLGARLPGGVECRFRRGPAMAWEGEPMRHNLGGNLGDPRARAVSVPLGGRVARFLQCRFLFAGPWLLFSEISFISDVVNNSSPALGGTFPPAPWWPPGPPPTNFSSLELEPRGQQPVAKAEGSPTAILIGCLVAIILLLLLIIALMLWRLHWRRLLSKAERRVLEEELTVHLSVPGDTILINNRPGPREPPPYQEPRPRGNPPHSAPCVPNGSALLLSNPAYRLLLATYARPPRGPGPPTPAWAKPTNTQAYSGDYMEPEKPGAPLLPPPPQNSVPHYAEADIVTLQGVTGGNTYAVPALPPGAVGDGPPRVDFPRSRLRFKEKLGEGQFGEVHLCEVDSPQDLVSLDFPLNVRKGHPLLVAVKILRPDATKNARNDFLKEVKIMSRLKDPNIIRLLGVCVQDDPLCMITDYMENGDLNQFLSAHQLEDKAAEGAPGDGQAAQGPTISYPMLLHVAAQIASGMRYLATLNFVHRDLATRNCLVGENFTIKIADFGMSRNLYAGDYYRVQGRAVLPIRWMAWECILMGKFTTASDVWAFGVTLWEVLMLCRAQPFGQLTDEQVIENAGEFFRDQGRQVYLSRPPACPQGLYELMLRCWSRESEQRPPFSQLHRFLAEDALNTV
compound,measurement,setting,value
CN[C@@H]1C[C@H]2O[C@@](C)([C@@H]1OC)n1c3ccccc3c3c4c(c5c6ccccc6n2c5c31)C(=O)NC4 [Staurosporine],DDR1 - % activty,,87.08%
same,HILLSLOPE,"DDR1, single replicate curves",-1.76
same,DDR1 - % activty,Stauro Conc. 1.25E-06 M,0.78%
same,DDR1 - % activty,Stauro Conc. 1.95E-08 M,5.70%
same,DDR1 - % activty,Stauro Conc. 2.00E-05 M,-0.41%
same,DDR1 - % activty,Stauro Conc. 3.05E-10 M,101.08%
same,DDR1 - % activty,Stauro Conc. 4.88E-09 M,36.56%
same,DDR1 - % activty,Stauro Conc. 7.63E-11 M,100.44%
same,DDR1 - % activty,Stauro Conc. 7.81E-08 M,1.19%

# Source: paper PMC8550792, “Evolution of kinase polypharmacology across HSP90 drug discovery” (Cell Chemical Biology, 2021)
